Laboratory results reported in PubChem BioAssay AID2060330 (Molecular Pharmacology Branch, DTP, NCI, 2025).

Tested on: LG0703-F948-PDC spheroids with HUVEC/MSC, viability
Test: Anticancer human tumor LG0703-F948-PDC patient-derived lung adenocarcinoma cell line growth inhibition [IpAb]
Conditions: for IC50: curve of first compound; for viability, T/C: stronger effect = lower value
In short: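 Spheroids of 60% malignant cells, 25% HUVEC and 15% MSC were exposed to targeted agents combined with ipatasertib or abemaciclib. Doses started at or near clinical Cmax (10 microM when unknown) and fell in half-log steps.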

[1] = second compound 0.1 µM, first compound 0.0316 µM
[2] = second compound 0.1 µM, first compound 0.1 µM
[3] = second compound 0.1 µM, first compound 0.316 µM
[4] = second compound 0.1 µM, first compound 1 µM
[5] = second compound 0.1 µM, first compound 3.16 µM
[6] = second compound 0.1 µM, first compound 10 µM
[7] = second compound 0.316 µM, first compound 0.0316 µM
[8] = second compound 0.316 µM, first compound 0.1 µM
[9] = second compound 0.316 µM, first compound 0.316 µM
[10] = second compound 0.316 µM, first compound 1 µM
[11] = second compound 0.316 µM, first compound 3.16 µM
[12] = second compound 0.316 µM, first compound 10 µM
[13] = second compound 1 µM, first compound 0.0316 µM
[14] = second compound 1 µM, first compound 0.1 µM
[15] = second compound 1 µM, first compound 0.316 µM
[16] = second compound 1 µM, first compound 1 µM
[17] = second compound 1 µM, first compound 3.16 µM
[18] = second compound 1 µM, first compound 10 µM
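Also: spheroids exposed to compounds for seven days before readout.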
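For viability, T/C in this document: T/C percent relative to DMSO vehicle wells set as 100% viability.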

`Cn1ncc(Cl)c1-c1cc(C(=O)NC(CN)Cc2cccc(F)c2)sc1Cl` (stereo not given) + CC(C)NCC(C(=O)N1CCN(c2ncnc3c2C(C)CC3O)CC1)c1ccc(Cl)cc1 was tested. Which IC50 (second compound 0.1 µM) did it give?
The IC50 was 714 nM.

What about the IC50 (second compound 0.316 µM) of the same molecule?
The IC50 was 925 nM.

What about the IC50 (second compound 1 µM) of the same molecule?
The IC50 was 522 nM.

What about the IC50 (second compound 3.16 µM) of the same molecule?
Its IC50 is under 31.6 nM.

And the IC50 (second compound 10 µM)?
Its IC50 is under 31.6 nM.

And the viability, T/C [1]?
The viability, T/C was 75.9%.

And the viability, T/C [2]?
Its viability, T/C is 75.1%.

And the viability, T/C [3]?
Its viability, T/C is 53.7%.

What about the viability, T/C [4] of the same molecule?
Its viability, T/C is 53.4%.

What about the viability, T/C [5] of the same molecule?
Its viability, T/C is 15.4%.

What about the viability, T/C [6] of the same molecule?
Its viability, T/C is 0.11%.

And the viability, T/C [7]?
The viability, T/C was 60%.

And the viability, T/C [8]?
Its viability, T/C is 57.1%.

And the viability, T/C [9]?
The viability, T/C was 53.8%.

And the viability, T/C [10]?
Its viability, T/C is 50.2%.

And the viability, T/C [11]?
Its viability, T/C is 18.7%.

What about the viability, T/C [12] of the same molecule?
Its viability, T/C is 0.1%.

And the viability, T/C [13]?
Its viability, T/C is 54.7%.

What about the viability, T/C [14] of the same molecule?
Its viability, T/C is 50.5%.

And the viability, T/C [15]?
Its viability, T/C is 49.4%.

What about the viability, T/C [16] of the same molecule?
The viability, T/C was 48.1%.

And the viability, T/C [17]?
The viability, T/C was 11%.

What about the viability, T/C [18] of the same molecule?
The viability, T/C was 0.1%.

What about the viability, T/C (second compound 3.16 µM, first compound 0.0316 µM) of the same molecule?
Its viability, T/C is 41.2%.

What about the viability, T/C (second compound 3.16 µM, first compound 0.1 µM) of the same molecule?
Its viability, T/C is 44.9%.

What about the viability, T/C (second compound 3.16 µM, first compound 0.316 µM) of the same molecule?
Its viability, T/C is 43.7%.

And the viability, T/C (second compound 3.16 µM, first compound 1 µM)?
The viability, T/C was 40.5%.

What about the viability, T/C (second compound 3.16 µM, first compound 3.16 µM) of the same molecule?
The viability, T/C was 18.9%.

And the viability, T/C (second compound 3.16 µM, first compound 10 µM)?
The viability, T/C was 0.1%.

And the viability, T/C (second compound 10 µM, first compound 0.0316 µM)?
The viability, T/C was 41.8%.

And the viability, T/C (second compound 10 µM, first compound 0.1 µM)?
The viability, T/C was 42.1%.

What about the viability, T/C (second compound 10 µM, first compound 0.316 µM) of the same molecule?
The viability, T/C was 35%.

What about the viability, T/C (second compound 10 µM, first compound 1 µM) of the same molecule?
Its viability, T/C is 39.3%.

What about the viability, T/C (second compound 10 µM, first compound 3.16 µM) of the same molecule?
Its viability, T/C is 9.68%.

What about the viability, T/C (second compound 10 µM, first compound 10 µM) of the same molecule?
The viability, T/C was 0.15%.

Which IC50 (second compound 0.01 µM) does the source give for `C=CCn1c(=O)c2cnc(Nc3ccc(N4CCN(C)CC4)cc3)nc2n1-c1cccc(C(C)(C)O)n1` + CCN1CCN(Cc2ccc(Nc3ncc(F)c(-c4cc(F)c5nc(C)n(C(C)C)c5c4)n3)nc2)CC1 here?
Its IC50 is 1160 nM.

And the IC50 (second compound 0.0316 µM)?
Its IC50 is 1010 nM.

What about the IC50 (second compound 0.1 µM) of the same molecule?
Its IC50 is 898 nM.

And the IC50 (second compound 0.316 µM)?
The IC50 was 862 nM.

What about the IC50 (second compound 1 µM) of the same molecule?
Its IC50 is 421 nM.

What about the viability, T/C (second compound 0.01 µM, first compound 0.0316 µM) of the same molecule?
The viability, T/C was 120%.

And the viability, T/C (second compound 0.01 µM, first compound 0.1 µM)?
Its viability, T/C is 101%.

And the viability, T/C (second compound 0.01 µM, first compound 0.316 µM)?
Its viability, T/C is 86%.

What about the viability, T/C (second compound 0.01 µM, first compound 1 µM) of the same molecule?
Its viability, T/C is 58.9%.

And the viability, T/C (second compound 0.01 µM, first compound 3.16 µM)?
The viability, T/C was 17.3%.

What about the viability, T/C (second compound 0.01 µM, first compound 10 µM) of the same molecule?
Its viability, T/C is 8.27%.

And the viability, T/C (second compound 0.0316 µM, first compound 0.0316 µM)?
The viability, T/C was 99.6%.

And the viability, T/C (second compound 0.0316 µM, first compound 0.1 µM)?
Its viability, T/C is 94.1%.

What about the viability, T/C (second compound 0.0316 µM, first compound 0.316 µM) of the same molecule?
The viability, T/C was 78.7%.

And the viability, T/C (second compound 0.0316 µM, first compound 1 µM)?
Its viability, T/C is 53.2%.

What about the viability, T/C (second compound 0.0316 µM, first compound 3.16 µM) of the same molecule?
The viability, T/C was 16.6%.

And the viability, T/C (second compound 0.0316 µM, first compound 10 µM)?
Its viability, T/C is 6.85%.

What about the viability, T/C [1] of the same molecule?
The viability, T/C was 95.8%.

What about the viability, T/C [2] of the same molecule?
The viability, T/C was 76.5%.

And the viability, T/C [3]?
The viability, T/C was 71.2%.

And the viability, T/C [4]?
The viability, T/C was 53.5%.

And the viability, T/C [5]?
Its viability, T/C is 16%.

And the viability, T/C [6]?
Its viability, T/C is 4.26%.

What about the viability, T/C [7] of the same molecule?
Its viability, T/C is 85.3%.

What about the viability, T/C [8] of the same molecule?
Its viability, T/C is 79.6%.

What about the viability, T/C [9] of the same molecule?
The viability, T/C was 69.4%.

What about the viability, T/C [10] of the same molecule?
Its viability, T/C is 47.7%.

What about the viability, T/C [11] of the same molecule?
Its viability, T/C is 21.4%.

And the viability, T/C [12]?
Its viability, T/C is 7.46%.

What about the viability, T/C [13] of the same molecule?
The viability, T/C was 88.4%.

What about the viability, T/C [14] of the same molecule?
The viability, T/C was 69.8%.

What about the viability, T/C [15] of the same molecule?
The viability, T/C was 51.8%.

What about the viability, T/C [16] of the same molecule?
The viability, T/C was 40.1%.

What about the viability, T/C [17] of the same molecule?
The viability, T/C was 21.8%.

What about the viability, T/C [18] of the same molecule?
Its viability, T/C is 3.5%.

For `Cn1cnc2c(F)c(Nc3ccc(Br)cc3Cl)c(C(=O)NOCCO)cc21` + CCN1CCN(Cc2ccc(Nc3ncc(F)c(-c4cc(F)c5nc(C)n(C(C)C)c5c4)n3)nc2)CC1, which IC50 (second compound 0.01 µM) is on record?
Its IC50 is 270 nM.

And the IC50 (second compound 0.0316 µM)?
The IC50 was 132 nM.

And the IC50 (second compound 0.1 µM)?
The IC50 was 54.1 nM.

And the IC50 (second compound 0.316 µM)?
Its IC50 is 288 nM.

What about the IC50 (second compound 1 µM) of the same molecule?
Its IC50 is 41.6 nM.

What about the viability, T/C (second compound 0.01 µM, first compound 0.00949 µM) of the same molecule?
The viability, T/C was 83%.

What about the viability, T/C (second compound 0.01 µM, first compound 0.03 µM) of the same molecule?
The viability, T/C was 74.6%.

What about the viability, T/C (second compound 0.01 µM, first compound 0.0949 µM) of the same molecule?
Its viability, T/C is 55.4%.

And the viability, T/C (second compound 0.01 µM, first compound 0.3 µM)?
The viability, T/C was 52.6%.

What about the viability, T/C (second compound 0.01 µM, first compound 0.949 µM) of the same molecule?
The viability, T/C was 46.7%.

What about the viability, T/C (second compound 0.01 µM, first compound 3 µM) of the same molecule?
Its viability, T/C is 45%.

What about the viability, T/C (second compound 0.0316 µM, first compound 0.00949 µM) of the same molecule?
Its viability, T/C is 80.4%.

What about the viability, T/C (second compound 0.0316 µM, first compound 0.03 µM) of the same molecule?
The viability, T/C was 61.5%.

And the viability, T/C (second compound 0.0316 µM, first compound 0.0949 µM)?
Its viability, T/C is 51.9%.

And the viability, T/C (second compound 0.0316 µM, first compound 0.3 µM)?
Its viability, T/C is 46.2%.

What about the viability, T/C (second compound 0.0316 µM, first compound 0.949 µM) of the same molecule?
The viability, T/C was 46.1%.

And the viability, T/C (second compound 0.0316 µM, first compound 3 µM)?
Its viability, T/C is 39.8%.

What about the viability, T/C (second compound 0.1 µM, first compound 0.00949 µM) of the same molecule?
Its viability, T/C is 68.8%.

What about the viability, T/C (second compound 0.1 µM, first compound 0.03 µM) of the same molecule?
The viability, T/C was 54.5%.

And the viability, T/C (second compound 0.1 µM, first compound 0.0949 µM)?
The viability, T/C was 43.9%.

And the viability, T/C (second compound 0.1 µM, first compound 0.3 µM)?
The viability, T/C was 44.1%.

And the viability, T/C (second compound 0.1 µM, first compound 0.949 µM)?
The viability, T/C was 45.2%.

And the viability, T/C (second compound 0.1 µM, first compound 3 µM)?
Its viability, T/C is 37%.

And the viability, T/C (second compound 0.316 µM, first compound 0.00949 µM)?
Its viability, T/C is 72.7%.

What about the viability, T/C (second compound 0.316 µM, first compound 0.03 µM) of the same molecule?
Its viability, T/C is 64.9%.

And the viability, T/C (second compound 0.316 µM, first compound 0.0949 µM)?
Its viability, T/C is 48%.

What about the viability, T/C (second compound 0.316 µM, first compound 0.3 µM) of the same molecule?
Its viability, T/C is 54.4%.

And the viability, T/C (second compound 0.316 µM, first compound 0.949 µM)?
Its viability, T/C is 48.8%.

What about the viability, T/C (second compound 0.316 µM, first compound 3 µM) of the same molecule?
Its viability, T/C is 41.7%.

What about the viability, T/C (second compound 1 µM, first compound 0.00949 µM) of the same molecule?
Its viability, T/C is 70.1%.

And the viability, T/C (second compound 1 µM, first compound 0.03 µM)?
Its viability, T/C is 53.6%.

What about the viability, T/C (second compound 1 µM, first compound 0.0949 µM) of the same molecule?
The viability, T/C was 38.4%.

And the viability, T/C (second compound 1 µM, first compound 0.3 µM)?
Its viability, T/C is 44%.

What about the viability, T/C (second compound 1 µM, first compound 0.949 µM) of the same molecule?
Its viability, T/C is 39.2%.

And the viability, T/C (second compound 1 µM, first compound 3 µM)?
Its viability, T/C is 41.5%.
